{"source": "patent US20210189330A1", "about": "“INDUCED TOTIPOTENT STEM CELLS AND METHODS FOR MAKING AND USING THE SAME” (THE J. DAVID GLADSTONE INSTITUTES, A TESTAMENTARY TRUST …, priority 2017, published 2021)", "test_system": "mEpiSCs", "experiment": "mEpiSC conversion culture in first conversion media with Smad inhibitor", "assay_type": "cell-based, mouse", "conditions": "1 μM on Day 0, 3 μM from Days 1-3; observed Conversion Day 1", "protocol": "Under the conditions tested, the conversion bias toward floating iBCs was less efficient; therefore, more cells were required than for the 3D hemispheres (discussed in example above) in order to observe or harvest iBCs. It is contemplated that optimization of timing and Smad inhibition may vary depending on the cell type used. […] Two phases of media were prepared and cells were fed from days 0-3 (“first conversion media”) and then days 4-7 (“second conversion media”), respectively.\nAt Conversion Day 0, approximately 14 hours after preparation of mEpiSCs for conversion, cells were observed as evenly dispersed, mostly single cells. The first conversion media was prepared using CTSFES media with Pen/Strep and 2-Mercaptoethanol described above as the base media and supplemented with BMP4 (10 ng/mL), SB431542 (1 μM on Day 0, 3 μM from Days 1-3), and AA (64 μg/mL). On Conversion Day 1, cells were observed growing with some cells remaining colony-like while others began to flatten at the edges. (FIG. 4). […] At approximately the same time each day, media was replaced and cells were incubated overnight at 37° C.", "data": [{"smiles": "NC(=O)c1ccc(-c2nc(-c3ccc4c(c3)OCO4)c(-c3ccccn3)[nH]2)cc1", "note": "[SB431542]", "values": [{"measurement": "toxicity to starting mEpiSCs", "value": "toxicity was also believed to be killing some cells"}]}]}
